Test results: the NIST ThermoML archive (doi:10.1016/j.jct.2008.12.009)
± gives the expanded uncertainty stated by the source.

Assay: excess molar enthalpy (molar enthalpy of mixing); xn = mol fraction of the nth substance listed
Details: 101.33 kPa, Gas, Flow calorimetry, x1 = 0.5

excess molar enthalpy (373.15 K) | excess molar enthalpy (383.15 K) | excess molar enthalpy (393.15 K) | excess molar enthalpy (403.15 K) | excess molar enthalpy (413.15 K) | excess molar enthalpy (423.15 K) | excess molar enthalpy (433.15 K) | excess molar enthalpy (443.15 K) | excess molar enthalpy (453.15 K) | excess molar enthalpy (463.15 K) | excess molar enthalpy (473.15 K) | excess molar enthalpy (483.15 K) | excess molar enthalpy (493.15 K) | Compound
0.0129 ± 0.000382 kcal/mol | 0.0113 ± 0.000359 kcal/mol | 0.0101 ± 0.000359 kcal/mol | 0.00891 ± 0.000359 kcal/mol | 0.00803 ± 0.000359 kcal/mol | 0.00722 ± 0.000335 kcal/mol | 0.00664 ± 0.000335 kcal/mol | 0.006 ± 0.000335 kcal/mol | 0.00547 ± 0.000335 kcal/mol | 0.00504 ± 0.000335 kcal/mol | 0.00471 ± 0.000335 kcal/mol | 0.0043 ± 0.000335 kcal/mol | 0.00402 ± 0.000335 kcal/mol | N#N [nitrogen] + O
0.0132 ± 0.000406 kcal/mol | 0.0115 ± 0.000382 kcal/mol | 0.0103 ± 0.000382 kcal/mol | 0.00908 ± 0.000382 kcal/mol | 0.00822 ± 0.000382 kcal/mol | 0.00741 ± 0.000382 kcal/mol | 0.00679 ± 0.000359 kcal/mol | 0.00619 ± 0.000359 kcal/mol | 0.00564 ± 0.000359 kcal/mol | 0.00516 ± 0.000359 kcal/mol | 0.00483 ± 0.000359 kcal/mol | 0.00449 ± 0.000359 kcal/mol | 0.00413 ± 0.000359 kcal/mol | O=O [oxygen] + O
